Assay results from ChEMBL document CHEMBL1201862, “PubChem BioAssay data set” (2004).
Activity calls are given as the source filed them.

How the values were obtained:
HEK293 [1] = test: cells; conditions: Homo sapiens
[2] = biological target: T1, Microphthalmia-associated transcription factor (Homo sapiens, UniProt O75030); test: reducers of TRPM1 reporter luminescence, concentration series – cell-based, SK-MEL-5, cherry-picked, set 3, MITF inhibitor project, dose response (AID 493073); format: functional;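 further: SK-MEL-5 melanoma cells with luciferase driven by the MITF target TRPM1 promoter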
T1 sequence (O75030 whole entry): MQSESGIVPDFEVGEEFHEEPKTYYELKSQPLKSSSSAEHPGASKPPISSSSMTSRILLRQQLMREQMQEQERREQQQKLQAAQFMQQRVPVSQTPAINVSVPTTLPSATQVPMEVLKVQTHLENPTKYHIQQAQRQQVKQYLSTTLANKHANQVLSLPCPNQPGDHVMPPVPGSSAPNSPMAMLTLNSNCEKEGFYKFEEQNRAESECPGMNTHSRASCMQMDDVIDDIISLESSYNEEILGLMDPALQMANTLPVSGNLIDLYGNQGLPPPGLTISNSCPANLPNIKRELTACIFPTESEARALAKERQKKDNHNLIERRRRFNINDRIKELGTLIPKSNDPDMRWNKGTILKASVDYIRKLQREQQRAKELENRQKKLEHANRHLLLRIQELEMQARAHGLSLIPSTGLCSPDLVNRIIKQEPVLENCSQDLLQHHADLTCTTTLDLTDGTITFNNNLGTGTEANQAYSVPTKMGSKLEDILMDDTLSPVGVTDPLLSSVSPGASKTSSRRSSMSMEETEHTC

[3] = Luminescence Cell-Based Dose Retest to Confirm Inhibitors of Cancer Stem Cells. [Related pubchem assays (depositor defined):AID2717, AID2721]; format: functional; conditions: Homo sapiens
[4] = biological target: Hepatocyte nuclear factor 4-alpha (Homo sapiens, UniProt P41235); format: functional, cell-based;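 further: biochemical luminescence-based dose-response counterscreen measuring inhibition of HNF4 dimerization, run alongside a screen for blockers of ABHD5–perilipin-5 interaction; split luciferase complementation of HNF4 fusion proteins in cell lysate measuring dimerization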
Chain of Hepatocyte nuclear factor 4-alpha (P41235 whole entry, the tested form may be a part): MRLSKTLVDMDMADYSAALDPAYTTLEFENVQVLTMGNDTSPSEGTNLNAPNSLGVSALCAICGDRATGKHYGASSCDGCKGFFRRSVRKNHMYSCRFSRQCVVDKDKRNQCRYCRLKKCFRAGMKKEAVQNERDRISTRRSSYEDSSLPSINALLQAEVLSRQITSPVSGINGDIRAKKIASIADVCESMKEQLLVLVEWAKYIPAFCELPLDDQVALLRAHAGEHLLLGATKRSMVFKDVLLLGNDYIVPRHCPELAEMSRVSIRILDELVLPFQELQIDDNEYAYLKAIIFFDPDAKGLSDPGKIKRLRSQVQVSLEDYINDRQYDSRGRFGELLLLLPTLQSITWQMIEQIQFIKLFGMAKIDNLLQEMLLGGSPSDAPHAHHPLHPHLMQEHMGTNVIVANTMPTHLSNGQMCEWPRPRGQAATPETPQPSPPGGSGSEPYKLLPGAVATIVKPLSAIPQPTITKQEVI

HEK293 [5] = test: cells; conditions: Homo sapiens; remark: listed apart in the source
[6] = viability loss in THP-1 monocytes – THP-1 cells, cytotoxicity control for Vif-APOBEC3G degradation inhibitor project, dose response (AID 1117359); format: functional; conditions: THP-1
A-375 = test: proliferation inhibition in MITF-low A375 cells – cell-based, cherry-pick samples, set 2, counter-screen for MITF modulator project, dose response (AID 540335); format: functional; conditions: Homo sapiens
[7] = biological target: Ras and Rab interactor 1/Tyrosine-protein kinase ABL1 (Homo sapiens, UniProt P00519+Q13671); format: functional;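 further: biochemical TR-FRET dose-response test measuring inhibition of binding between Rin1 and Abl proteins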
Chain of Ras and Rab interactor 1/Tyrosine-protein kinase ABL1 (P00519 whole entry): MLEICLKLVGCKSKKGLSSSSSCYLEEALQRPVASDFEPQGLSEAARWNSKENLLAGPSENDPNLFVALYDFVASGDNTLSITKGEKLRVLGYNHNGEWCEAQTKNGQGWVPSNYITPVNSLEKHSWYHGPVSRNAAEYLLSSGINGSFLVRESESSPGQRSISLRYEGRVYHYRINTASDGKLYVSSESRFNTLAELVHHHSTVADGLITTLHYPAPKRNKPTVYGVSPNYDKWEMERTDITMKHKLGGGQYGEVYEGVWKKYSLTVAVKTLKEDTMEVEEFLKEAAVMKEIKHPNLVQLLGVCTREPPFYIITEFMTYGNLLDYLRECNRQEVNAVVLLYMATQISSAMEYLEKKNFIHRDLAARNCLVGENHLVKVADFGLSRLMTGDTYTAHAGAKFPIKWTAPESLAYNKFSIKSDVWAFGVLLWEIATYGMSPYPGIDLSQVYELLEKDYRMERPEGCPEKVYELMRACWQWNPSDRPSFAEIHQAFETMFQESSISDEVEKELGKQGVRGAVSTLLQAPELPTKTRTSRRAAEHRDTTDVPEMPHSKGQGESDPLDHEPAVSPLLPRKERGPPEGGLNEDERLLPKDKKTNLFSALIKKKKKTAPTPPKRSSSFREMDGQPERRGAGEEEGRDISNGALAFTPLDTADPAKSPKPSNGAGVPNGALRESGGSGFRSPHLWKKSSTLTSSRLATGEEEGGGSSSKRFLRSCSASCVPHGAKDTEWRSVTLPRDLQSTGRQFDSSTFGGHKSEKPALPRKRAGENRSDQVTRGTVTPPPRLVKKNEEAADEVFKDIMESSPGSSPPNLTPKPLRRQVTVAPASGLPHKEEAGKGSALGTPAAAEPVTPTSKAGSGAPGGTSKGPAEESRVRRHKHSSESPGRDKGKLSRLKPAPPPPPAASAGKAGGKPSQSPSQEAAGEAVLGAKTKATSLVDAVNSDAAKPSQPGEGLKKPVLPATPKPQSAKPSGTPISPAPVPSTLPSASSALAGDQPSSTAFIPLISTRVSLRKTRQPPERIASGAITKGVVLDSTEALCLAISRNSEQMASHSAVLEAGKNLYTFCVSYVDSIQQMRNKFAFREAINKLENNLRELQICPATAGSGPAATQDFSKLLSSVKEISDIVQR
Chain of Ras and Rab interactor 1/Tyrosine-protein kinase ABL1 (Q13671 whole entry): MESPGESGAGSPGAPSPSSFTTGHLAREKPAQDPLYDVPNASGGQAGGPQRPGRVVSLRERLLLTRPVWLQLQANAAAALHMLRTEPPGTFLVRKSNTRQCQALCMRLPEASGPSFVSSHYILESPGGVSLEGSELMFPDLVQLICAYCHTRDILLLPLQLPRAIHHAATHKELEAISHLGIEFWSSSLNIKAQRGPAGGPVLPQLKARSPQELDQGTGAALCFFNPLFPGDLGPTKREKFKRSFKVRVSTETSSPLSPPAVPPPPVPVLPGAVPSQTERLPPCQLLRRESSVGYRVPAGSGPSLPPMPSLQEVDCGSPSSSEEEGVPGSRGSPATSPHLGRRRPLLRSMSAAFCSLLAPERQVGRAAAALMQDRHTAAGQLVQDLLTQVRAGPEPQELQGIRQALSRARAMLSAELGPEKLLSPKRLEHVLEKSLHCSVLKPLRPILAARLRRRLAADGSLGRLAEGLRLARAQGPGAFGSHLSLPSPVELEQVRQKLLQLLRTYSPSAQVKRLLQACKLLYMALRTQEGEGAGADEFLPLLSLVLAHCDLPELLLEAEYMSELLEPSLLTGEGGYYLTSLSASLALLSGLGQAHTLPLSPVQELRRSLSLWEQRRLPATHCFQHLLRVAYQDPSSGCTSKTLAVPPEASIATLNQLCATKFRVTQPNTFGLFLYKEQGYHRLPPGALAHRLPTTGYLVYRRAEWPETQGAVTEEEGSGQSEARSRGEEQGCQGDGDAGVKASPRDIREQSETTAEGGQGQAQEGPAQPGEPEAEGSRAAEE

Aurora kinase A = Aurora kinase A (Homo sapiens, UniProt O14965); format: functional;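 further: value from the Navigating the Kinome kinase panel profiling, panel entry STK6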
Chain of Aurora kinase A (O14965 whole entry): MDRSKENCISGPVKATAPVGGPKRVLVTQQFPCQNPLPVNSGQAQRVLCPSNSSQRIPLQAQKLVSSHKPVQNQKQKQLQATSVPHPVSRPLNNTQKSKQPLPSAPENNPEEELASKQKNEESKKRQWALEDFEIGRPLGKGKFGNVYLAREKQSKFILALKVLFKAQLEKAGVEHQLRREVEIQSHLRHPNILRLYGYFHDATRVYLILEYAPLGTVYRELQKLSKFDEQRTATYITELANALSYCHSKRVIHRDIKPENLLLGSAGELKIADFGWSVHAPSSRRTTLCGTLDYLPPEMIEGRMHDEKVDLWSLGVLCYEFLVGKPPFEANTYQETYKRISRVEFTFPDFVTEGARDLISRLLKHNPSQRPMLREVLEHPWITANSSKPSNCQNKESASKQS

[8] = biological target: Cyclin-dependent kinase 19 (Homo sapiens, UniProt Q9BWU1); test: Navigating the Kinome. Panel member name: CDC2L6; format: functional
Chain of Cyclin-dependent kinase 19 (Q9BWU1 whole entry): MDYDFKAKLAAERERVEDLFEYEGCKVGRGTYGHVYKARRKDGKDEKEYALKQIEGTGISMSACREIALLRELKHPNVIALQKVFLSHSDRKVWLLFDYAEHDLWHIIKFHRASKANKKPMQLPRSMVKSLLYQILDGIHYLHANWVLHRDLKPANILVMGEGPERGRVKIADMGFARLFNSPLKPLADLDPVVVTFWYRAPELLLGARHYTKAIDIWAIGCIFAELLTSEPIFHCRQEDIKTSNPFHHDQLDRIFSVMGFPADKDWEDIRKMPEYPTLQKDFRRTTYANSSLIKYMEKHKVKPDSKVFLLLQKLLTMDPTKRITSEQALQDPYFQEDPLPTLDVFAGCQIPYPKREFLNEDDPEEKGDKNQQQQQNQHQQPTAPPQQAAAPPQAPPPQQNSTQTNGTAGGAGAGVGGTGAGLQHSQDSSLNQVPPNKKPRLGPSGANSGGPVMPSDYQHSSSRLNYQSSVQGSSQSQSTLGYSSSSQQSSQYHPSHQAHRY

HeLa = test: ATP-based viability loss in HeLa cells – cell-based, CellTiter-Glo luminescence, cherry-pick samples, cytotoxicity control for MITF activator project, dose response (AID 540259); format: functional; conditions: Homo sapiens
[9] = biological target: T2, Endoribonuclease toxin MazF (Escherichia coli K-12, UniProt P0AE70); test: activation of MazEF endoribonuclease cleavage – biochemical, fluorescence, single-stranded RNA substrate, uHTS hits, dose response (AID 588481); format: functional
T2 sequence (P0AE70 whole entry): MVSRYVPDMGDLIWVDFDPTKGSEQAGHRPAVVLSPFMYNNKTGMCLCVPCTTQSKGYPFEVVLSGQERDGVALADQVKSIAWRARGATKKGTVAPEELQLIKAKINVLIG

[10] = biological target: T2, Endoribonuclease toxin MazF; test: substrate-only fluorescence increase artefacts – biochemical, single-stranded RNase substrate, counter-screen for MazEF activator project, dose response (AID 588502); format: functional
Beta-galactosidase = Beta-galactosidase (Escherichia coli, UniProt Q8VNN2); test: PubChem AID 485352; format: functional
Chain of Beta-galactosidase (Q8VNN2 whole entry): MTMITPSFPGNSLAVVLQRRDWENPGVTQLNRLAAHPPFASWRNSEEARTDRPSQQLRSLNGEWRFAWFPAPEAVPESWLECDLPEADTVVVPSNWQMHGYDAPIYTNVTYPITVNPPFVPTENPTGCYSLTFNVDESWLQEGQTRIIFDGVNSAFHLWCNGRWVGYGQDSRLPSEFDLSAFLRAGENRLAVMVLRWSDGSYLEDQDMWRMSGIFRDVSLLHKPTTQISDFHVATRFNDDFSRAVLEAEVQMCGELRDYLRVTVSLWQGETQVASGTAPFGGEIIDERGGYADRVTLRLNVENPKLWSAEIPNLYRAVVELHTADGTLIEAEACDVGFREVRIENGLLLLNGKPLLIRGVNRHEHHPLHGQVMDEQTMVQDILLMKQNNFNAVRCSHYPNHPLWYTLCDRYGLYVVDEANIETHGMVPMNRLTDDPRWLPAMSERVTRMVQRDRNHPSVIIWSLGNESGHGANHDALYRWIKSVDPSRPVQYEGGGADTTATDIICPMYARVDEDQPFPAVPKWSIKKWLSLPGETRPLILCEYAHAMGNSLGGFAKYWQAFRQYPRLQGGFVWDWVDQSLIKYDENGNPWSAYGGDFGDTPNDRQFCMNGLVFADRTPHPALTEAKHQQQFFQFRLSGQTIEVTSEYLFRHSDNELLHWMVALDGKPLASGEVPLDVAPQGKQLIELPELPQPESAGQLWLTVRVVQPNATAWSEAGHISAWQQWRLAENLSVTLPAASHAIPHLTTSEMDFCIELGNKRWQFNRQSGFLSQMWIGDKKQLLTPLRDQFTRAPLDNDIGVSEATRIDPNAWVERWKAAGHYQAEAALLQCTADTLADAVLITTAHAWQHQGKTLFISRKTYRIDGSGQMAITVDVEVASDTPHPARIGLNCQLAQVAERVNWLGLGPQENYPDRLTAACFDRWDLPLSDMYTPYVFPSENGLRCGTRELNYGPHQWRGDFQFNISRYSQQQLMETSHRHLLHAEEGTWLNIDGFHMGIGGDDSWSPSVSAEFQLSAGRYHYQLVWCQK

[11] = biological target: T3, Type-1 angiotensin II receptor (Homo sapiens, UniProt P30556); test: antagonism of angiotensin II type 1 receptor – cell-based, uHTS hits, selectivity assay for APJ receptor antagonist project, dose response (AID 463214); format: functional;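 further: antagonist potency against angiotensin II stimulated AT1 response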
T3 sequence (P30556 whole entry): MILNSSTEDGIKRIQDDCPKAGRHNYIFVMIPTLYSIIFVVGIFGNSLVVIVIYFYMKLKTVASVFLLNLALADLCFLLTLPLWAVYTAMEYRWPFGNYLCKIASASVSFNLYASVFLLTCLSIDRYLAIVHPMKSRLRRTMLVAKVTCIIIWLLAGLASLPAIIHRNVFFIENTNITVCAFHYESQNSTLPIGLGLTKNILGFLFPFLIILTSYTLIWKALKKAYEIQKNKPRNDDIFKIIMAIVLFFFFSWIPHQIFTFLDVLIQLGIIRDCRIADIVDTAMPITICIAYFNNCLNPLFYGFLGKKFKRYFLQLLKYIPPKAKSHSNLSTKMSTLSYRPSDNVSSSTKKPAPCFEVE

Caspase-3 [12] = biological target: T4, Caspase-3 (Homo sapiens, UniProt P42574); format: functional
T4 sequence (P42574 whole entry): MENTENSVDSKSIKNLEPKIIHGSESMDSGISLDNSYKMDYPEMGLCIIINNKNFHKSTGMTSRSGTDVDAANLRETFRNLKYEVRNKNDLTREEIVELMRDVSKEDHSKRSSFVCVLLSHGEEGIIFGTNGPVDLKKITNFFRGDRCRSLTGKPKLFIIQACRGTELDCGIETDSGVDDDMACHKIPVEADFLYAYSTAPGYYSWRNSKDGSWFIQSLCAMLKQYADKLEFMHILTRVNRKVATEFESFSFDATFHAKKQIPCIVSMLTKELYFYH

[13] = biological target: T5, Sentrin-specific protease 8 (Homo sapiens, UniProt Q96LD8); format: functional;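 further: luminescence read-out of SENP8 inhibition, dose-response confirmation following an ultra-high-throughput screen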
T5 sequence (Q96LD8 whole entry): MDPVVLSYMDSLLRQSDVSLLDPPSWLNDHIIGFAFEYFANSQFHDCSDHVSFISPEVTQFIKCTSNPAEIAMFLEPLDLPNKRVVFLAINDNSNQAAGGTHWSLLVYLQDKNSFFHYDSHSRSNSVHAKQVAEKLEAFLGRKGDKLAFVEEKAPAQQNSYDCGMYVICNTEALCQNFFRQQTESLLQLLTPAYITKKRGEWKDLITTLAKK

[14] = biological target: T6, Sentrin-specific protease 7 (Homo sapiens, UniProt Q9BQF6); test: inhibition of human SENP7 cleavage activity – biochemical, luminescence, SAR follow-up (AID 504497); format: functional
T6 sequence (Q9BQF6 whole entry): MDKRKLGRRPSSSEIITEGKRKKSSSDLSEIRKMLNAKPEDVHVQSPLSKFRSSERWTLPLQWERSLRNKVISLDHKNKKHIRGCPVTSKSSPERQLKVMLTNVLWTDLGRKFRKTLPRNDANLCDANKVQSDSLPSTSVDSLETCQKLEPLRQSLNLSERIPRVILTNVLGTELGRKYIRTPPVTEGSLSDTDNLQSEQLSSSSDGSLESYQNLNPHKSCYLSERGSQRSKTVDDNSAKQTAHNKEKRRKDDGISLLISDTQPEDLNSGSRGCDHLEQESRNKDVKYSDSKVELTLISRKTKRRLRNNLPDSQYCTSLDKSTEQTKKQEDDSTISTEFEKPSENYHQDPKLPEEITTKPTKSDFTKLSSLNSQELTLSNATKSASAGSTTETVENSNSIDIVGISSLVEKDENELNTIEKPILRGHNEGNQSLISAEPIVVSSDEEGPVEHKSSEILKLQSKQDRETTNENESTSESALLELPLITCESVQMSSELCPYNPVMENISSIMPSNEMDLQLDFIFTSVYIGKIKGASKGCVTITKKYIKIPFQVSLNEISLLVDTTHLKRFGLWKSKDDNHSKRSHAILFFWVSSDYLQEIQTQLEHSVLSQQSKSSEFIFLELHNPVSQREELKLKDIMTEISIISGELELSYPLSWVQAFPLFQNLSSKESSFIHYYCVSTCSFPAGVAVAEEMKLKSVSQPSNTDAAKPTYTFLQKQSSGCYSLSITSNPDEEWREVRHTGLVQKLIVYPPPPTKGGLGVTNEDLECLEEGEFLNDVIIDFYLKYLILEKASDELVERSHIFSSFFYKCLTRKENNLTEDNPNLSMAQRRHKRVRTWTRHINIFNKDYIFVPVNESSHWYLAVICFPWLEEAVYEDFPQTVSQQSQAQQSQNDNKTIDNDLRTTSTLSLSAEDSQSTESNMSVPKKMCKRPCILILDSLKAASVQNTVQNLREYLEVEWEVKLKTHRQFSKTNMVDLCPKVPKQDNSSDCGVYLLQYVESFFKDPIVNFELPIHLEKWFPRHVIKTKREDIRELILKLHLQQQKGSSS

Caspase-3 [15] = biological target: T4, Caspase-3; test: SAR Analysis of small molecule inhibitors of Sentrin-specific proteases (SENPs) using a Caspase-3 Selectivity assay. [Related pubchem assays (depositor defined):AID2540, AID2599, AID434973, AID489001]; format: functional
[16] = biological target: T6, Sentrin-specific protease 7; format: functional
[17] = biological target: T7, Oxysterols receptor LXR-beta (Homo sapiens, UniProt P55055); format: functional, cell-based;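 further: agonist activity at LXR measured by a cell-based luminescence readout across a dose range, run as a counterscreen for daf-12 agonists; HEK293 cells with Gal4-LXR fusion and GAL4-driven luciferase reporter; potency for activation of Gal4-LXR reporter so compounds are agonists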
T7 sequence (P55055 whole entry): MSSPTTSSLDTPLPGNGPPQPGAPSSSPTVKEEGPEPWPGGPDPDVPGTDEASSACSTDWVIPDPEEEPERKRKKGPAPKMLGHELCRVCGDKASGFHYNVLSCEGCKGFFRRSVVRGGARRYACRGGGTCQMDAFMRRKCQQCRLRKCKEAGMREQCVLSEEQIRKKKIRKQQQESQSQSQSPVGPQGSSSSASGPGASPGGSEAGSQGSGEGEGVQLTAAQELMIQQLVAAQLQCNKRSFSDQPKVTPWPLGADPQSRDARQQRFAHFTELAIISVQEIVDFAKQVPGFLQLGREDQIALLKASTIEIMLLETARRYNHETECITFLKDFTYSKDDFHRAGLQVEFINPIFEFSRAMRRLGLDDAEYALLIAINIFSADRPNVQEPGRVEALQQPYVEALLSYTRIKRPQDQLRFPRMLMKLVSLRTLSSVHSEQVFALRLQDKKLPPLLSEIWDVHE

[18] = biological target: T8, Sentrin-specific protease 6 (Homo sapiens, UniProt Q9GZR1); format: functional
T8 sequence (Q9GZR1 whole entry): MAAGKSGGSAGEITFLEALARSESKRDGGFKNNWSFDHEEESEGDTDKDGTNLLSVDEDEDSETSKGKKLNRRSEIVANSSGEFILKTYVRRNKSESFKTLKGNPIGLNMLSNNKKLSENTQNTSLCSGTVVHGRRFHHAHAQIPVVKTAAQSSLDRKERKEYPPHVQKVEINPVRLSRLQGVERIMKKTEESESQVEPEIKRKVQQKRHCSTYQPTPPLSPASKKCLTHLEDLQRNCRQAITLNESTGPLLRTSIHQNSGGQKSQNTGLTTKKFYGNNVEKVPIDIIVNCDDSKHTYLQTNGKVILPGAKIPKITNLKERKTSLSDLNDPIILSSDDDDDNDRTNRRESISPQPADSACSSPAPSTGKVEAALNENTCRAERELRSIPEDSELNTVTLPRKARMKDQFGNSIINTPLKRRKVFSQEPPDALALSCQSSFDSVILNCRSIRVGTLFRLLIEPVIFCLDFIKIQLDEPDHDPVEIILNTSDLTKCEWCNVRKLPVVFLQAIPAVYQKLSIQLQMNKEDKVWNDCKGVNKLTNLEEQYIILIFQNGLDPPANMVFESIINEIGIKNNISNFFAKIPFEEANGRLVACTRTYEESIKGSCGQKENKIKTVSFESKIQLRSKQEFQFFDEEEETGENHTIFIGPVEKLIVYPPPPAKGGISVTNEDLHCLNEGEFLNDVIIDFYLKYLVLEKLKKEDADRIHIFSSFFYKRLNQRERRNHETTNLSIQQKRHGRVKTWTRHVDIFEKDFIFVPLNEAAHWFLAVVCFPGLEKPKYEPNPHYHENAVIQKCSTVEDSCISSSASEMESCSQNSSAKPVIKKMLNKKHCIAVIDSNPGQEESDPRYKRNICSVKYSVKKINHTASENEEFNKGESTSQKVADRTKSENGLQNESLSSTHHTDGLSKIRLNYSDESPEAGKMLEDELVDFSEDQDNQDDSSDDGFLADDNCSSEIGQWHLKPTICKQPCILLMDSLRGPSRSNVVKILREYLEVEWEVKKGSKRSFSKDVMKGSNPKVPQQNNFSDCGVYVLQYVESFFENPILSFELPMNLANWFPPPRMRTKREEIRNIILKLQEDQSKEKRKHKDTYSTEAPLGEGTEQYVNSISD

[19] = biological target: T5, Sentrin-specific protease 8; test: inhibition of human SENP8 cleavage activity – biochemical, luminescence, SAR follow-up (AID 504501); format: functional
[20] = biological target: T8, Sentrin-specific protease 6; test: SAR Analysis of small molecule inhibitors of Sentrin-specific protease 6 (SENP6) using a Luminescent assay. [Related pubchem assays (depositor defined):AID2582, AID2599]; format: functional

Compound: O=C1NC(=O)N(Cc2ccccc2)C(=O)/C1=C\C=C\c1ccco1
- EC50 (HEK293 [1]): > 59.6 µM (inactive)
- AC50 [2]: 6.29 µM (active)
- AC50 [3]: 1.48 µM (active)
- IC50 [4]: 1.59 µM (active)
- EC50 (HEK293 [5]): > 59.6 µM (inactive)
- CC50 [6]: > 40 µM (active)
- AC50 (A-375): 30.6 µM (active)

Compound: CC(C)(C)OC(=O)N1CCC(C(=O)Nc2ccc(C(=O)N3CCCCC3)cc2)CC1
- IC50 [7]: 21.9 µM (inactive)

Compound: Cc1ccc(C)c(NC(=O)Nc2ccc(-c3c(C)sc4ncnc(N)c34)cc2)c1
- Ki (Aurora kinase A): 0.251 µM (active)
- Ki [8]: > 100 µM (inactive)

Compound: Cc1ccsc1CCNC(=O)C1CCC(=O)N(CCc2cccc(F)c2)C1 (stereo not given)
- AC50 (HeLa): 99.1 µM (active)

Compound: CC(C)(C)c1ccc(C(=O)CSc2nc3ccccc3c(=O)[nH]2)cc1
- EC50 [9]: > 99 µM (inactive)
- EC50 [10]: > 99 µM (inactive)

Compound: COc1cccc(NC(=O)C(=O)NCCC2CCCCN2S(=O)(=O)c2cccs2)c1 (stereo not given)
- AC50 (HeLa): 239 µM (active)

Compound: NC(S)=NN=C(S)Nc1ccccc1
- EC50 (Beta-galactosidase): > 40 µM (inactive)
- IC50 [11]: > 40 µM (not active)

Compound: c1ccc(Nc2nc(-c3ccccc3)ns2)cc1
- IC50 (Caspase-3 [12]): 18.8 µM (active)
- IC50 [13]: 2.41 µM (active)
- IC50 [14]: 1.7 µM (active)
- IC50 (Caspase-3 [15]): 7.8 µM (active)
- IC50 [16]: 2.1 µM (active)
- EC50 [17]: > 67.6 µM (inactive)
- IC50 [18]: 2.19 µM (active)
- IC50 [19]: 2.5 µM (active)
- IC50 [20]: 1.9 µM (active)
